What was measured:
[1] = test system: S. aureus Newman; experiment: fitness (endpoint OD595 vs no drug) (fraction); higher = more growth
In short: (§1)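 Plates with 384 wells were inoculated at OD595 0.01 using 30 µl of TSB, LB Lennox or CY, or 55 µl for S. pneumoniae. Incubation was at 37 °C, with OD595 measured every 30 min for 14 h. Fitness is the stationary-phase transition optical density over the robust mean of no-drug control wells, after first-reading background subtraction; it is capped at 1.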

[2] = test system: B. subtilis 168; experiment: as above
In short: as §1

[3] = test system: S. pneumoniae D39V; experiment: as above
In short: as §1

[4] = test system: S. aureus Newman; experiment: Bliss interaction score (quartile over a dose matrix) (fitness difference); higher = more antagonism (negative = synergy)
In short: (§2)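 Growth was read as OD595 when cultures entered stationary phase, and each value was divided by the plate's robust no-drug mean and capped at 1. This normalised ratio is the fitness value, and fitness for each single drug came from the combination data. The Bliss score subtracts the expected fitness, taken as the product, from the observed fitness and is given as quartiles across technical, biological and donor/recipient replicates.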

[5] = test system: B. subtilis 168; experiment: as above
In short: as §2

[6] = test system: S. pneumoniae D39V; experiment: as above
In short: as §2

[7] = test system: S. aureus DSM 20231; experiment: as above
In short: as §2

[8] = test system: S. aureus DSM 20231; experiment: fitness (endpoint OD595 vs no drug) (fraction); higher = more growth
In short: as §1
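Wherever Bliss interaction score (quartile over a dose matrix) is given: first quartile when negative (synergy) and third quartile when positive (antagonism).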

CNC(C)C1CCC(N)C(OC2C(N)CC(N)C(OC3OCC(C)(O)C(NC)C3O)C2O)O1 (centres undefined) [Gentamicin] + Cc1onc(-c2ccccc2)c1C(=O)N[C@@H]1C(=O)N2[C@@H]1SC(C)(C)[C@@H]2C(=O)O [Oxacillin]
fitness, one replicate, main component drawn
Settings	partner 0.0078 µg/mL	partner 0.0155 µg/mL	partner 0.0156 µg/mL	partner 0.031 µg/mL	partner 0.0312 µg/mL	partner 0.0625 µg/mL	partner 0.075 µg/mL	partner 0.15 µg/mL	partner 0.3 µg/mL
[1], first compound 0.375 µg/mL	–	–	0.785	–	0.736	0.648	–	–	–
[1], first compound 0.75 µg/mL	–	–	0.741	–	0.709	0.632	–	–	–
[1], first compound 1.5 µg/mL	–	–	0.581	–	0.106	0.113	–	–	–
[2], first compound 0.0625 µg/mL	≥ 1	0.976	–	0.948	–	–	0.663	0.033	0.0409
[2], first compound 0.125 µg/mL	0.923	0.907	–	0.92	–	–	0.0517	0.0783	0.0465
[2], first compound 0.25 µg/mL	0.265	0.218	–	0.171	–	–	0.0546	0.0554	0.0541

main component drawn
Settings	fitness
[1], first compound 0.5 µg/mL, partner 0.0156 µg/mL	0.82
[1], first compound 0.5 µg/mL, partner 0.0312 µg/mL	0.782
[1], first compound 0.5 µg/mL, partner 0.0625 µg/mL	0.672
[1], first compound 1 µg/mL, partner 0.0156 µg/mL	0.851
[1], first compound 1 µg/mL, partner 0.0312 µg/mL	0.776
[1], first compound 1 µg/mL, partner 0.0625 µg/mL	0.765
[1], first compound 2 µg/mL, partner 0.0156 µg/mL	0.901
[1], first compound 2 µg/mL, partner 0.0625 µg/mL	0.666
[2], first compound 0.0625 µg/mL, partner 0.002 µg/mL	0.899
[2], first compound 0.0625 µg/mL, partner 0.004 µg/mL	0.82
[2], first compound 0.125 µg/mL, partner 0.002 µg/mL	0.275
[2], first compound 0.125 µg/mL, partner 0.004 µg/mL	0.0851
[2], first compound 0.125 µg/mL, partner 0.008 µg/mL	0.0748
[2], first compound 0.25 µg/mL, partner 0.002 µg/mL	0.0462
[2], first compound 0.25 µg/mL, partner 0.004 µg/mL	0.0441
[2], first compound 0.25 µg/mL, partner 0.008 µg/mL	0.0454
[3], first compound 2 µg/mL, partner 0.005 µg/mL	0.985
[3], first compound 2 µg/mL, partner 0.01 µg/mL	0.995
[3], first compound 2 µg/mL, partner 0.02 µg/mL	0.953
[3], first compound 2 µg/mL, partner 0.04 µg/mL	0.55
[3], first compound 4 µg/mL, partner 0.005 µg/mL	0.999
[3], first compound 4 µg/mL, partner 0.01 µg/mL	0.982
[3], first compound 4 µg/mL, partner 0.02 µg/mL	0.947
[3], first compound 4 µg/mL, partner 0.04 µg/mL	0.549
[3], first compound 8 µg/mL, partner 0.005 µg/mL	0.963
[3], first compound 8 µg/mL, partner 0.01 µg/mL	0.985
[3], first compound 8 µg/mL, partner 0.02 µg/mL	0.939
[3], first compound 8 µg/mL, partner 0.04 µg/mL	0.553

main component drawn
Settings	Bliss interaction score
[4]	0.0666
[5]	-0.0859
[6]	0.104
[7]	0.0545

Cc1onc(-c2ccccc2)c1C(=O)N[C@@H]1C(=O)N2[C@@H]1SC(C)(C)[C@@H]2C(=O)O [Oxacillin] + CN(C)c1cc(NC(=O)CNC(C)(C)C)c(O)c2c1C[C@H]1C[C@H]3[C@H](N(C)C)C(O)=C(C(N)=O)C(=O)[C@@]3(O)C(O)=C1C2=O [Tigecycline]
Settings	fitness
[1], first compound 0.0156 µg/mL, partner 0.039 µg/mL	0.794
[1], first compound 0.0156 µg/mL, partner 0.078 µg/mL	0.798
[1], first compound 0.0156 µg/mL, partner 0.156 µg/mL	0.778
[1], first compound 0.0312 µg/mL, partner 0.039 µg/mL	0.751
[1], first compound 0.0312 µg/mL, partner 0.078 µg/mL	0.762
[1], first compound 0.0312 µg/mL, partner 0.156 µg/mL	0.745
[1], first compound 0.0625 µg/mL, partner 0.039 µg/mL	0.641
[1], first compound 0.0625 µg/mL, partner 0.078 µg/mL	0.663
[1], first compound 0.0625 µg/mL, partner 0.156 µg/mL	0.688
[2], first compound 0.002 µg/mL, partner 0.039 µg/mL	≥ 1
[2], first compound 0.002 µg/mL, partner 0.078 µg/mL	0.976
[2], first compound 0.002 µg/mL, partner 0.156 µg/mL	0.992
[2], first compound 0.004 µg/mL, partner 0.039 µg/mL	0.963
[2], first compound 0.004 µg/mL, partner 0.078 µg/mL	0.943
[2], first compound 0.004 µg/mL, partner 0.156 µg/mL	0.95
[2], first compound 0.008 µg/mL, partner 0.039 µg/mL	0.998
[2], first compound 0.008 µg/mL, partner 0.078 µg/mL	0.945
[2], first compound 0.008 µg/mL, partner 0.156 µg/mL	0.962
[3], first compound 0.01 µg/mL, partner 0.65 µg/mL	0.928
[3], first compound 0.01 µg/mL, partner 1.3 µg/mL	0.951
[3], first compound 0.01 µg/mL, partner 2.6 µg/mL	0.957
[3], first compound 0.02 µg/mL, partner 0.65 µg/mL	0.904
[3], first compound 0.02 µg/mL, partner 1.3 µg/mL	0.891
[3], first compound 0.02 µg/mL, partner 2.6 µg/mL	0.875
[3], first compound 0.04 µg/mL, partner 1.3 µg/mL	0.463
[3], first compound 0.04 µg/mL, partner 2.6 µg/mL	0.531

fitness, [2], one replicate
Settings	first compound 0.0078 µg/mL	first compound 0.0155 µg/mL	first compound 0.031 µg/mL	first compound 0.075 µg/mL	first compound 0.15 µg/mL	first compound 0.3 µg/mL
partner 0.039 µg/mL	–	–	–	0.507	0.0264	0.0457
partner 0.078 µg/mL	–	–	–	0.549	0.0459	0.0479
partner 0.125 µg/mL	≥ 1	0.964	0.968	–	–	–
partner 0.156 µg/mL	–	–	–	0.607	0.049	0.0616
partner 0.25 µg/mL	0.962	≥ 1	0.923	–	–	–
partner 0.5 µg/mL	≥ 1	0.976	0.857	–	–	–

Settings	Bliss interaction score
[4]	0.0567
[5]	0.0355
[6]	0.0953
[7]	-0.0365

Cc1onc(-c2ccccc2)c1C(=O)N[C@@H]1C(=O)N2[C@@H]1SC(C)(C)[C@@H]2C(=O)O [Oxacillin] + CN[C@@H]1[C@H](O[C@H]2[C@H](O[C@H]3[C@H](O)[C@@H](O)[C@H](N=C(N)N)[C@@H](O)[C@@H]3N=C(N)N)O[C@@H](C)[C@]2(O)C=O)O[C@@H](CO)[C@H](O)[C@H]1O [Streptomycin]
fitness
Settings	partner 1 µg/mL	partner 2 µg/mL	partner 4 µg/mL	partner 8 µg/mL
[1], first compound 0.0156 µg/mL	0.808	0.726	–	–
[1], first compound 0.0312 µg/mL	0.738	0.644	–	–
[1], first compound 0.0625 µg/mL	0.606	0.531	–	–
[2], first compound 0.002 µg/mL	–	0.982	0.369	0.0333
[2], first compound 0.004 µg/mL	–	0.941	0.208	0.0502
[2], first compound 0.008 µg/mL	–	0.931	0.134	0.0492
[3], first compound 0.01 µg/mL	–	0.938	0.98	0.909
[3], first compound 0.02 µg/mL	–	0.88	0.931	0.908
[3], first compound 0.04 µg/mL	–	0.33	0.399	0.441

fitness, one replicate
Settings	first compound 0.01 µg/mL	first compound 0.02 µg/mL	first compound 0.04 µg/mL	first compound 0.075 µg/mL	first compound 0.15 µg/mL	first compound 0.3 µg/mL
[2], partner 2 µg/mL	–	–	–	0.534	0.0325	0.0421
[2], partner 4 µg/mL	–	–	–	0.0966	0.025	0.0294
[2], partner 8 µg/mL	–	–	–	0.0343	0.0288	0.0352
[3], partner 16 µg/mL	0.887	0.863	0.436	–	–	–

Settings	Bliss interaction score
[4]	-0.0537
[5]	-0.113
[6]	0.093
[7]	-0.0653

Cc1onc(-c2ccccc2)c1C(=O)N[C@@H]1C(=O)N2[C@@H]1SC(C)(C)[C@@H]2C(=O)O [Oxacillin] + COc1cc(Cc2cnc(N)nc2N)cc(OC)c1OC [Trimethoprim]
fitness
Settings	partner 0.25 µg/mL	partner 0.5 µg/mL	partner 1 µg/mL
[2], first compound 0.002 µg/mL	–	0.46	–
[2], first compound 0.004 µg/mL	–	0.475	–
[2], first compound 0.008 µg/mL	–	0.467	–
[2], first compound 0.031 µg/mL	–	0.384	–
[8], first compound 0.0156 µg/mL	0.561	0.129	0.0621
[8], first compound 0.0312 µg/mL	0.559	0.147	0.0523
[8], first compound 0.0625 µg/mL	0.438	0.0674	0.0399

one replicate
Settings	fitness
[2], first compound 0.002 µg/mL, partner 1 µg/mL	0.498
[2], first compound 0.002 µg/mL, partner 2 µg/mL	0.37
[2], first compound 0.004 µg/mL, partner 1 µg/mL	0.418
[2], first compound 0.004 µg/mL, partner 2 µg/mL	0.257
[2], first compound 0.0078 µg/mL, partner 0.1 µg/mL	0.898
[2], first compound 0.0078 µg/mL, partner 0.125 µg/mL	0.385
[2], first compound 0.0078 µg/mL, partner 0.2 µg/mL	0.804
[2], first compound 0.0078 µg/mL, partner 0.4 µg/mL	0.578
[2], first compound 0.008 µg/mL, partner 1 µg/mL	0.351
[2], first compound 0.008 µg/mL, partner 2 µg/mL	0.304
[2], first compound 0.0155 µg/mL, partner 0.1 µg/mL	0.839
[2], first compound 0.0155 µg/mL, partner 0.125 µg/mL	0.363
[2], first compound 0.0155 µg/mL, partner 0.2 µg/mL	0.802
[2], first compound 0.0155 µg/mL, partner 0.4 µg/mL	0.599
[2], first compound 0.031 µg/mL, partner 0.1 µg/mL	0.882
[2], first compound 0.031 µg/mL, partner 0.125 µg/mL	0.352
[2], first compound 0.031 µg/mL, partner 0.2 µg/mL	0.763
[2], first compound 0.031 µg/mL, partner 0.4 µg/mL	0.536
[2], first compound 0.075 µg/mL, partner 0.125 µg/mL	0.0694
[2], first compound 0.075 µg/mL, partner 0.25 µg/mL	0.0331
[2], first compound 0.075 µg/mL, partner 0.5 µg/mL	0.026
[2], first compound 0.15 µg/mL, partner 0.125 µg/mL	0.0313
[2], first compound 0.15 µg/mL, partner 0.25 µg/mL	0.0424
[2], first compound 0.15 µg/mL, partner 0.5 µg/mL	0.0705
[2], first compound 0.3 µg/mL, partner 0.125 µg/mL	0.0436
[2], first compound 0.3 µg/mL, partner 0.25 µg/mL	0.0503
[2], first compound 0.3 µg/mL, partner 0.5 µg/mL	0.0489
[8], first compound 0.0156 µg/mL, partner 0.125 µg/mL	0.558
[8], first compound 0.0312 µg/mL, partner 0.125 µg/mL	0.523
[8], first compound 0.0625 µg/mL, partner 0.125 µg/mL	0.477

Settings	Bliss interaction score
[4]	-0.0935
[5]	0.0589
[6]	0.164
[7]	0.0401

Reference: the supplement of paper PMC10627819
